# Measured values as given in patent EP0799174B1, “BIOCIDAL ALCOHOLS, THEIR PRODUCTION AND THEIR USE” (SCHÜLKE & MAYR GMBH, priority 1994, dated 1996).
# How the values were obtained:
# [1] = tested on: Staphylococcus aureus ATCC 6538; test: MIC values, water-soluble (inhibition titre, dilution series in CSL); assay type: cell-based
# Protocol: (§1) Standard formulation: • Rewopal MPG 40 25.0 g • aromatic alcohol 10 mmol • dem.* water to 100 g • lactic acid for adjusting the pH value to 7.0 q.s.
# (§2) In sterile test tubes, 5 ml each of the dilutions of the disinfectant in WSH (water of standardized hardness) are mixed with 5 ml double-concentrated casein peptone soybean flour peptone solution (CSL) or CSL and deactivating substances.
# (§3) To determine the bacteriostatic action on Staphylococcus aureus and Proteus mirabilis the tubes are inoculated by adding 0.1 ml of a CSL culture diluted 1:10 with CSL and incubated for 24 h at 37°C.
# (§4) To test the fungistatic action, 0.1 ml of an undiluted CSL culture of Candida albicans which has been incubated at 37°C for 72 h is used in each case. Evaluation takes place after 72 h at 37°C.
# (§5) The highest dilution of the preparation in CSL or CSL and deactivating substances that still suppresses growth of the test germs after […] incubation serves as the measure of the multiplication-inhibiting action (inhibition titre).
# (§6) In the case of the disinhibition tests, the culture media are to be adjusted to a pH value of 7.0 ± 0.2 according to the state of the disinfectant.
# (§7) Standard formulation: • aromatic alcohol 5.0 % • Brij 58 5.0 % • 1,3-butanediol to 100 • Test germs: see above • Test method: see above
# [2] = tested on: Candida albicans ATCC 10231; test: as above; assay type: cell-based
# Protocol: as §1, §2, §3, §4, §5, §6, §7
# [3] = tested on: Mycobacterium terrae ATCC 15755; test: Germ carrier experiment with standard cotton; assay type: cell-based; parameters: key: E: individual colonies; M: several colonies; +: weak growth; ++: moderate growth; +++: heavy growth; ++++: very heavy growth; ∞: lawn growth; details: Rewopal MPG 40 25.0%, aromatic alcohol 2.0 %, dem. water to 100
# Protocol: • Rewopal MPG 40 25.0% • aromatic alcohol 2.0 % • dem. water to 100
# The bacteria are elutriated with 5 ml CSL from a 24 h-old (37°C) culture onto CSA plates measuring approx. 9 cm in diameter, the suspension being diluted with CSL if necessary. The number of CFU/ml is to be determined using surface culture. It should be > 10^9/ml.
# The sterilized and dried germ carriers are introduced into the bacterial suspension and left in it for 15 minutes, during which they are turned over twice.
# A number (4) of contaminated, thoroughly impregnated germ carriers, corresponding to the proposed removal times - 15, 30, 60 and 120 minutes - is placed in a small dish and 10 ml of the disinfectant solution to be tested in WSH are poured over them. Air bubbles are to be removed by repeated turning of the germ carriers.
# After the corresponding action times, the germ carriers are to be removed from the disinfectant solution, and after rinsing twice in each case for 1 min in 10 ml ML solution (see Appendix) to which the deactivating substances were optionally added, the germ carriers are placed onto the surface of a Löwenstein-Jensen nutrient medium with tweezers and moved backwards and forwards 3 to 4 times using light pressure. After inoculating the nutrient medium surface the small cloth is to remain lying directly above the condensed water level of the nutrient medium.
# Germ carriers pre-treated in the same way, but kept in WSH for 120 minutes instead of in disinfectant solution are to be inoculated as a control. The inoculated tubes are incubated at 37°C for 3 weeks.
# [4] = tested on: Microsporon luteus ATCC 15442; test: Skin antiseptic a): test on skin of subjects, contamination after 1 h, ring method; assay type: in vivo; details: aromatic alcohol 1.0% in 1-propanol 30.0%, 2-propanol 45.0%, 0.2 ml on 10cm^2 skin, germs removed after 15 minutes, average of all 10 subjects
# Protocol: • 1-propanol 30.0% • 2-propanol 45.0% • aromatic alcohol 1.0% • dem. water to 100 Test germ: Microsporon luteus ATCC 15442 Test method: Apply 0.2 ml preparation to 10cm^2 skin, allow to dry, cover with TEGADERM® film and leave to work for 1 h, contaminate with 0.1 ml germ suspension, remove after 15 minutes with ring method Reference: Control against Neo-Kodan® Number of subjects: 10 subjects
# [5] = tested on: Penicillium funiculosum ATCC 36839; test: MIC values, water-soluble (inhibition titre, dilution series in CSL); assay type: cell-based
# [6] = tested on: Proteus vulgaris NCTC 4635; test: as above; assay type: cell-based
# [7] = tested on: Trichophyton mentagrophytes (ATCC 9533); test: Foot spray: minimum inhibition concentration; assay type: cell-based; details: foot spray formula: 2-propanol 40.0%, aromatic alcohol 0.2 %, allantoin 0.5 %, dem. water to 100
# Excerpt: (§8) Formula: • 2-propanol 40.0% • aromatic alcohol 0.2 % • allantoin 0.5 % • dem. water to 100 Test germs: special skin fungi such as Trichophyton rubrum, Trichophyton mentagrophytes (ATCC 9533), Microsporon gypseum Test method: Determination of the minimum inhibition concentration (method see under 1.) Data in %
# Microsporon gypseum [8] = test: Foot spray: minimum inhibition concentration; assay type: cell-based; details: foot spray formula: 2-propanol 40.0%, aromatic alcohol 0.2 %, allantoin 0.5 %, dem. water to 100
# Excerpt: as §8
# Trichophyton rubrum [9] = test: Foot spray: minimum inhibition concentration; assay type: cell-based; details: foot spray formula: 2-propanol 40.0%, aromatic alcohol 0.2 %, allantoin 0.5 %, dem. water to 100
# Excerpt: as §8
# [10] = tested on: Aspergillus niger ATCC 6275; test: MIC values, water-soluble (inhibition titre, dilution series in CSL); assay type: cell-based
# [11] = Skin antiseptic a): suspension test according to DGHM; assay type: cell-based; details: formulation with 1.0% aromatic alcohol in 1-propanol 30.0%, 2-propanol 45.0%; concentration and time
# [12] = tested on: Trichophyton mentagrophytes; test: Foot spray: agar diffusion test; assay type: cell-based; details: foot spray formula with aromatic alcohol 0.2 %
# Excerpt: as §8, with “in % Test germs: special skin fungi such as Trichophyton rubrum, Trichophyton mentagrophytes, Microsporon gypseum Test method: Agar diffusion test Data as millimetres inhibition zone” for “in %”
# Microsporon gypseum [13] = test: Foot spray: agar diffusion test; assay type: cell-based; details: foot spray formula with aromatic alcohol 0.2 %
# Excerpt: as §8, with “in % Test germs: special skin fungi such as Trichophyton rubrum, Trichophyton mentagrophytes, Microsporon gypseum Test method: Agar diffusion test Data as millimetres inhibition zone” for “in %”
# Trichophyton rubrum [14] = test: Foot spray: agar diffusion test; assay type: cell-based; details: foot spray formula with aromatic alcohol 0.2 %
# Excerpt: as §8, with “in % Test germs: special skin fungi such as Trichophyton rubrum, Trichophyton mentagrophytes, Microsporon gypseum Test method: Agar diffusion test Data as millimetres inhibition zone” for “in %”
# [15] = standard formulation: Rewopal MPG 40 25.0 g, aromatic alcohol 10 mmol, dem. water to 100 g, pH 7.0
# [16] = standard formulation: aromatic alcohol 5.0 %, Brij 58 5.0 %, 1,3-butanediol to 100
SMILES,"MIC (minimum inhibiting concentration) S. aureus [1, 15]","MIC (minimum inhibiting concentration) C. albicans [2, 15]",growth of M. terrae after action time 15' [3],growth of M. terrae after action time 30' [3],growth of M. terrae after action time 60' [3],growth of M. terrae after action time 120' [3],Average value of RF (reduction factors) [4],"MIC (minimum inhibiting concentration) P. funi. [5, 15]","MIC (minimum inhibiting concentration) P. vulgaris [6, 15]","minimum inhibition concentration, T. mentagrophytes [7]","minimum inhibition concentration, M. gypseum (Microsporon gypseum [8])","minimum inhibition concentration, T. rubrum (Trichophyton rubrum [9])","MIC (minimum inhibiting concentration) A. niger [10, 15]","inhibition zone, T. mentagrophytes ([12]; use concentration 100%)","inhibition zone, M. gypseum (Microsporon gypseum [13]; use concentration 100%)","inhibition zone, T. rubrum (Trichophyton rubrum [14]; use concentration 100%)",also measured
"CCCCCC(=Cc1ccccc1)CO [Alcohol 8, α-amyl cinnamyl alcohol]",39 μmol/100 ml test solution,313 μmol/100 ml test solution,+++,++,+,E,1.9 log stages,313 μmol/100 ml test solution,"1,250 μmol/100 ml test solution",1.56%,1.56%,1.56%,156 μmol/100 ml test solution,22 mm,19 mm,23 mm,"values in the suspension test according to DGHM [11]: 50%, 30 seconds; inhibition zone, T. mentagrophytes ([12]; use concentration 50%): 14 mm; inhibition zone, M. gypseum (Microsporon gypseum [13]; use concentration 50%): 10 mm; inhibition zone, T. rubrum (Trichophyton rubrum [14]; use concentration 50%): 14 mm"
"OCCCc1ccccc1 [Alcohol 1, 3-phenyl propanol, reference compound]","1,250 μmol/100 ml test solution",625 μmol/100 ml test solution,++++,++++,+++,+++,0 log stages,313 μmol/100 ml test solution,625 μmol/100 ml test solution,6.25%,6.25%,6.25%,625 μmol/100 ml test solution,0 mm,0 mm,0 mm,"MIC (minimum inhibiting concentration) S. aureus [1, 16]: 1,250 µmol/100 ml test solution; MIC (minimum inhibiting concentration) C. albicans [2, 16]: 625 µmol/100 ml test solution; MIC (minimum inhibiting concentration) P. funi. [5, 16]: 313 µmol/100 ml test solution; MIC (minimum inhibiting concentration) P. vulgaris [6, 16]: 625 µmol/100 ml test solution; MIC (minimum inhibiting concentration) A. niger [10, 16]: 625 µmol/100 ml test solution"
